Where two headings read alike, the source gives them in different places.
Legend:
[1] = target: JAK3 (Homo sapiens (Human), UniProt P52333); assay: JAK3 enzyme activity assay (Caliper mobility shift); assay type: biochemical; details: ATP at Km level; read-out: JAK3 Inh. IC50
Excerpt: The ability of candidate compounds to interact with JAK3 is quantitated by a mobility shift assay using an LC3000 instrument developed by Caliper Life Sciences. This assay is based on mobility shift electrophoresis, in which fluorescently labelled product and fluorescently labelled substrate peaks are separated and detected independently. JAK3 product/substrate separation is obtained using the following instrument settings: Pressure=−1.4 psi, Downstream voltage=−2550V and Upstream voltage=−800V. The inhibitory potency of candidate compounds of JAK3 is measured in 20 mM HEPES pH 7.5, 10 mM MgCl2, 0.01% BSA, 0.0005% Tween-20, and 2% DMSO in the presence of 2.5 nM JAK3 (Life Technologies Catalog #PV3855), […] (Anaspec Catalog #AS-64106) and […] (Km level) using a 384-well plate format. Background signal is defined in the absence of enzyme and uninhibited signal is defined in the presence of vehicle (2% DMSO) alone. Compounds were evaluated in an 11 point dose-response ranging from […] to 0.34 nM. IC50 values of compounds are determined using a 4 parameter logistical fit of emission ratio as a function of the concentration of compound.

[2] = test system: JAK1/3 phosphorylation of its substrate, STAT5, at Y694; assay: JAK1/3 target modulation assay (IL-2 stimulated STAT5 Y694 phosphorylation in PBMC); assay type: cell-based; details: Primary human peripheral blood mononuclear cells, IL-2 25 ng/mL, read-out: IL2-STAT5 Inh. IC50
Description: Target modulation was based upon the ability of a compound to inhibit JAK1/3 phosphorylation of its substrate, STAT5, at Y694. Primary human peripheral blood mononuclear cells were plated in V-bottom 96 well plates at 200,000 cells/well in 120 μL medium (RPMI-1640 with 10% fetal bovine serum, 10 mM HEPES buffer, 12.2 mM 2-mercaptoethanol, and supplemented with glutamine/penicillin/streptomycin). Compounds were added as 15 μL of 10× working stock solutions in medium with 1% DMSO (or medium with 1% DMSO for controls) and placed in a 37° C. incubator with gentle shaking for 1 hour. Stimulation was carried out using recombinant human IL-2 (R&D Systems #202-IL-050) to activate JAK1/3. IL-2 stock solution was diluted in media to 250 ng/mL and was added rapidly to all compound containing and stimulation only wells at 15 μL/well (final concentration=25 ng/mL). Wells designated ‘unstimulated’ received 15 μL of media only. The plate was placed back in a 37° C. incubator with gentle shaking for 5 minutes. After stimulation, the plates were immediately sealed with a plate seal, and cells pelleted at 400× g for 5 minutes. Media was removed using a multichannel aspirator, and 75 μL of cold Tris lysis buffer (MSD #R60TX-3) plus 1× Protease Inhibitor Solution (MSD #R70AA-1), 1× Phosphatase Inhibitor I (MSD #R70AA-1), and 1× Phosphatase Inhibitor II (MSD #R70AA-1) was added per well. Cells were incubated at 4° C. with gentle shaking for at least 30 minutes to allow for complete lysis. The plates were removed from 4° C., and 25 μL of lysate from each well was added to the corresponding well on the MSD plate. Samples were analyzed by either an MSD multiplex kit for Phospho-STAT5a,b/Total-STAT5a,b (MSD #K15163D) or an MSD single-plex kit for Phospho-STAT5a,b (MSD #K150IGD). The protocols for the respective kits were followed, and the plates were read on the MSD SECTOR S 600.

[3] = target: ITK (Homo sapiens (Human), UniProt Q08881); assay: ITK inhibitor binding potency (LanthaScreen competitive binding assay); details: read-out: ITK Inh. IC50
Excerpt: The ability of candidate compounds to interact with ITK is quantitated by a competitive binding assay using the LanthaScreen technology developed by Life Technologies. This assay is based on the binding of a proprietary, Alexa Fluor® 647-labeled, ATP-competitive kinase inhibitor (kinase tracer-236) to the ITK expression construct in the presence of a Europium-conjugated antibody, resulting in a FRET (fluorescence resonance energy transfer) signal. Displacement of the kinase tracer by compound results in a lower emission ratio upon excitation of the Europium chelate. Candidate compounds are designed as potential irreversible inhibitors of ITK, capable of ligating to an active site cysteine residue resulting in time dependent covalent binding. The time dependent nature of irreversible inhibition is investigated by performing the binding assay with and without a pre-incubation of compound and ITK. […] The inhibitory potency of candidate compounds is measured in 20 mM HEPES pH 7.5, 10 mM MgCl2, 0.01% BSA, 0.0005% Tween-20, and 2% DMSO in the presence of 10 nM ITK, 2 nM Eu-anti-GST antibody, and 50 nM kinase tracer-236 using a 384-well plate format. Background signal is defined in the absence of ITK and uninhibited signal is defined in the presence of vehicle (2% DMSO) alone. Compounds were evaluated in an 11 point dose-response ranging from 20 uM to 0.34 nM. The binding assays are performed under two preincubation conditions to evaluate time dependence of inhibition. For the pre-incubation assay, ITK and Eu-anti-GST antibody are pre-incubated with compound or vehicle for two hours prior to the addition of kinase tracer. The non-preincubated assay is run under conditions where ITK and Eu-anti-GST antibody are added to a mixture of compound and kinase tracer. IC50 values of compounds are determined using a 4 parameter logistical fit of emission ratio as a function of the concentration of compound.

[4] = test system: ITK phosphorylation of its substrate, PLCγ1, at Y783; assay: ITK target modulation assay (PLCγ1 Y783 phosphorylation, anti-CD3 stimulated Jurkat T cells); assay type: cell-based; details: anti-CD3 Dynabeads stimulation, read-out: PLC-γ Inh. IC50
Description: Target modulation was based upon the ability of a compound to inhibit ITK phosphorylation of its substrate, PLCγ1, at Y783. Human Jurkat T cells (ATCC TIB-152) were plated in V-bottom 96 well plates at 400,000 cells/well in 80 μL medium (RPMI1640 with 10% heat inactivated serum and 55 μM 2-mercaptoethanol and supplemented with glutamine/penicillin/streptomycin). Compounds were added as 10 μL of 10× working stock solutions in medium with 1% DMSO (or medium with 1% DMSO for controls) and placed in a 37° C. incubator with gentle shaking for 1 hour. Stimulation was carried out using anti-CD3 Dynabeads (Invitrogen catalog #1151D) to activate the T cell receptor and mimic antigen presenting cells. Beads were washed and resuspended in medium at 1.84×10^8 beads/ml. Beads were added rapidly to all compound containing and stimulation only wells at 10 μL/well (bead:cell=2:1) with gentle mixing of the bead source between each addition. Wells designated ‘unstimulated’ received 10 μL of media only. The plate was immediately sealed with a plate seal and cells pelleted at 400× g for 4 minutes. Media was removed using a multichannel aspirator, 25 μL of cold hypotonic lysis buffer (VWR M334-100 ml) plus 1×HALT Protease Inhibitor Cocktail (ThermoFisher #78437), 1× Phosphatase Inhibitor Cocktail 2 (Sigma Aldrich #P5726), 1× Phosphatase Inhibitor Cocktail 3 (Sigma Aldrich #P0044) and 2 mM PMSF was added per well. Cells were incubated on ice for 30 minutes to swell the cells then lysed by pipetting 20 times using a multichannel pipet. The plates were then resealed and centrifuged for 5 minutes at 400× g to pellet the cellular debris. Two μL of the soluble component of each sample was spotted onto nitrocellulose and allowed to dry for 30 minutes. Nitrocellulose was wet in 1× Tris Buffer Saline (20 mM Tris pH7.5, 150 mM NaCl) then blocked in LiCOR Odyssey Blocking Buffer (TBS) (LiCOR #927-50000) for 1 hour at room temperature with rocking. Following blocking, nitrocellulose was incubated in LiCOR Odyssey Blocking Buffer (TBS) plus 0.2% Tween20 plus anti-phospho-PLCγ1 (Y783) antibody (CST #2821S) at 1:1000 and anti-PLCγ1 (Abcam #41433) at 1:5000 with gentle rocking overnight at 4° C. Nitrocellulose was then washed four times for 5 minutes each with TBS plus 0.1% Tween20 (TBST) then incubated in LiCOR Odyssey Blocking Buffer (TBS) plus 0.2% Tween20 plus secondary antibodies IRDye 800CW (LiCOR 926-32211) and IRDye 680RD (LiCOR 926-68070) both at 1:15,000 with gentle rocking at room temperature in the dark for 1 hour. Nitrocellulose was then washed four times for 5 minutes each with TBST at room temperature in the dark. A final rinse with TBS was done prior to imaging and quantifying using the LiCOR Odyssey Imager and software respectively.

Sequence of ITK (Q08881 whole entry): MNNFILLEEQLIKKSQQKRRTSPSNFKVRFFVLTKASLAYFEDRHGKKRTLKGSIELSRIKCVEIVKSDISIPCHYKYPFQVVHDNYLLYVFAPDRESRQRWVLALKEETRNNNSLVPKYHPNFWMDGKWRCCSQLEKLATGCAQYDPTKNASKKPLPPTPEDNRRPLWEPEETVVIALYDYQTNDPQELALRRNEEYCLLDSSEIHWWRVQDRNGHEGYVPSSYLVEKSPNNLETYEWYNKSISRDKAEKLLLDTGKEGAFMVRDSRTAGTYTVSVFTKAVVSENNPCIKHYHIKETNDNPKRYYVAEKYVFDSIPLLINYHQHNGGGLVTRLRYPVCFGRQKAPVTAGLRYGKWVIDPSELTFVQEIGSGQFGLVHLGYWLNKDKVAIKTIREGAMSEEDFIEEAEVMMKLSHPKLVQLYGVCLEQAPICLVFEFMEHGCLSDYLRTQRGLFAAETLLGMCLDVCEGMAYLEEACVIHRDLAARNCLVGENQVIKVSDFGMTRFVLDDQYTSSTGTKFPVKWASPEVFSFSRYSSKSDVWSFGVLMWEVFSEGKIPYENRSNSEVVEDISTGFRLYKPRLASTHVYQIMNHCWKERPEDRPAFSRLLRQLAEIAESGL
Sequence of JAK3 (P52333 781-1124): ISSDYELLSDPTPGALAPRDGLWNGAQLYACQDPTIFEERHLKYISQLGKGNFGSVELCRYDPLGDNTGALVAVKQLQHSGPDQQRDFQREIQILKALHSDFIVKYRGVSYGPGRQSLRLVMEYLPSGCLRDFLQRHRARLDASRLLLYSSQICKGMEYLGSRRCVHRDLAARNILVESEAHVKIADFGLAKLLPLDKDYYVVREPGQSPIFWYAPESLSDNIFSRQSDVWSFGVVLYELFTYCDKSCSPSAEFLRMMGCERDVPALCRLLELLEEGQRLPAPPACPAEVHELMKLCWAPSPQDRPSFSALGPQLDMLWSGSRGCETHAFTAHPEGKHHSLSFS

Structure (SMILES)	IC50 [1]	IC50 ([2]; Homo sapiens, PBMC)	IC50 [3]	IC50 ([4]; Homo sapiens, Jurkat)	IC50 [2]	IC50 ([4]; Human Jurkat T cells)
C=CC(=O)N1C[C@@H](Nc2ncnc3[nH]cc(CC4CC4)c23)CC[C@H]1CC (single isomer, unassigned) [Example 39]	≤ 10 nM	100 to 1000 nM	≤ 10 nM	100 to 1000 nM	–	–
C=CC(=O)N1C[C@H](Nc2ncnc3[nH]cc(CC4CC4)c23)CC[C@@H]1CC (single isomer, unassigned) [Example 40]	> 100 nM	> 1000 nM	> 100 nM	> 1000 nM	–	–
C=CC(=O)N1C[C@@H](Nc2ncnc3[nH]cc(CC4CC4)c23)CC[C@H]1C(C)C (single isomer, unassigned) [Example 42]	≤ 10 nM	100 to 1000 nM	≤ 10 nM	100 to 1000 nM	–	–
C=CC(=O)N1C[C@H](Nc2ncnc3[nH]cc(CC4CC4)c23)CC[C@@H]1C(C)C (single isomer, unassigned) [Example 43]	> 100 nM	> 1000 nM	> 100 nM	> 1000 nM	–	–
C=CC(=O)N1C[C@H](Nc2ncnc3[nH]cc([C@@H]4C[C@H]4COC)c23)CC[C@@H]1C (single isomer, unassigned) [Example 45]	≤ 10 nM	≤ 100 nM	≤ 10 nM	≤ 100 nM	–	–
C=CC(=O)N1C[C@H](Nc2ncnc3[nH]cc([C@H]4C[C@@H]4COC)c23)CC[C@@H]1C (single isomer, unassigned) [Example 46]	≤ 10 nM	100 to 1000 nM	≤ 10 nM	100 to 1000 nM	–	–
C=CC(=O)N1C[C@H](Nc2ncnc3[nH]cc([C@@H]4CC4(F)F)c23)CC[C@@H]1C (single isomer, unassigned) [Example 48]	≤ 10 nM	≤ 100 nM	≤ 10 nM	≤ 100 nM	–	–
C=CC(=O)N1C[C@H](Nc2ncnc3[nH]cc([C@H]4CC4(F)F)c23)CC[C@@H]1C (single isomer, unassigned) [Example 49]	≤ 10 nM	100 to 1000 nM	≤ 10 nM	100 to 1000 nM	–	–
C=CC(=O)N1C[C@H](Nc2ncnc3[nH]cc([C@H]4[C@H](C)C4(F)F)c23)CC[C@@H]1C (single isomer, unassigned) [Example 51]	≤ 10 nM	≤ 100 nM	≤ 10 nM	≤ 100 nM	–	–
C=CC(=O)N1C[C@H](Nc2ncnc3[nH]cc([C@@H]4[C@@H](C)C4(F)F)c23)CC[C@@H]1C (single isomer, unassigned) [Example 52]	≤ 10 nM	100 to 1000 nM	≤ 10 nM	100 to 1000 nM	–	–
C=CC(=O)N1C[C@H](Nc2ncnc3[nH]cc([C@@H]4C(C)(C)C4(F)F)c23)CC[C@@H]1C (single isomer, unassigned) [Example 54]	≤ 10 nM	100 to 1000 nM	≤ 10 nM	100 to 1000 nM	–	–
C=CC(=O)N1C[C@H](Nc2ncnc3[nH]cc([C@H]4[C@@H](C)C4(F)F)c23)CC[C@@H]1C (single isomer, unassigned) [Example 55]	≤ 10 nM	≤ 100 nM	≤ 10 nM	100 to 1000 nM	–	–
C=CC(=O)N1C[C@H](Nc2ncnc3[nH]cc([C@H]4[C@H](C)C4(F)F)c23)CC[C@@H]1C (single isomer, unassigned) [Example 56]	≤ 10 nM	–	≤ 10 nM	–	100 to 1000 nM	100 to 1000 nM
C/C=C/C(=O)N1C[C@H](Nc2ncnc3[nH]cc([C@H]4CC4(F)F)c23)CC[C@@H]1C (single isomer, unassigned) [Example 57]	> 100 nM	> 1000 nM	> 100 nM	> 1000 nM	–	–
C/C=C/C(=O)N1C[C@H](Nc2ncnc3[nH]cc([C@@H]4CC4(F)F)c23)CC[C@@H]1C (single isomer, unassigned) [Example 58]	> 100 nM	> 1000 nM	> 100 nM	100 to 1000 nM	–	–
C[C@H]1CC[C@@H](Nc2ncnc3[nH]cc([C@H]4CC4(F)F)c23)CN1C(=O)/C=C/CN(C)C (single isomer, unassigned) [Example 60]	≤ 10 nM	100 to 1000 nM	≤ 10 nM	≤ 100 nM	–	–
C[C@H]1CC[C@@H](Nc2ncnc3[nH]cc([C@@H]4CC4(F)F)c23)CN1C(=O)/C=C/CN(C)C (single isomer, unassigned) [Example 61]	10 to 100 nM	> 1000 nM	≤ 10 nM	100 to 1000 nM	–	–

From patent US12297203B2, “Pyrrolopyrimidine ITK inhibitors” (ACLARIS THERAPEUTICS, INC., priority 2018, dated 2025)
